The values below come from patent publication US9919021B2, “Brain permeant peptidomimetic beta-secretase 1 inhibitors for the treatment or prophylaxis of neurological disorders or conditions” (IBET—INSTITUTO DE BIOLOGIA EXPERIMENTAL E TECNOLOGICA, priority 2016, dated 2018).

A short description of one data set: in vitro. As to conditions: mouse, brain homogenate, t1/2 brain. Format: in vitro ADME, mice. How it is done:
An assay for in vitro metabolic stability was accomplished in order to test the influence of N-terminal acylation on the metabolization profile of the compounds. Therefore, compounds were prepared at 50 μM in phosphate-buffered saline (PBS) with 2% DMSO. An amount of 10 μL of the solution was added to human serum (40 μL) or to 10% of mice brain homogenate in PBS with 0.5% Triton X-100 (40 μL). All compounds were tested using the same biological samples of human serum and mice brain homogenate to ensure identical deactivation conditions. The solutions were incubated during different time periods at 37° C., after which metabolization was stopped by adding one volume of acetonitrile. Precipitated serum and brain proteins were removed by centrifugation at 14 000g for 10 min. […] The remaining peptide in the supernatant was quantified by HPLC-FLU (Merck Hitachi, Elite LaChrom), (exλ=255 nm and emλ=285 nm, to detect compounds containing phenylalanine, and exλ=275 nm and emλ=307 nm whenever tyrosine is present). Chromatographic conditions were as described for determination of enzyme activities. A calibration curve was built for each compound, and the decay in the concentration of the peptide in the incubated samples was followed until approximately 50% decay. The metabolization kinetics of the synthetic peptides followed a monophasic behaviour in vitro.

Details of data set [1]: species or system Wistar rats. As to conditions: in vivo, iv; for detection in serum samples: rat. How it is done:
Female mice (n=12, 8-12 weeks, weighing 22-37 g) and male Wistar rats (n=8, 8-12 weeks, weighing 182-201 g) were purchased from Harlan Ibérica, Barcelona, Spain. All animals received a standard diet and water ad libitum. Experiments were conducted according to the Home Office Guidance in the Operation of Animals (Scientific Procedures) Act 1986, published by Her Majesty's Stationary Office, London, UK and the Institutional Animal Research Committee Guide for the Care and Use of Laboratory Animals published by the US National Institutes of Health (NIH Publication No. 85-23, revised 1996), as well as to the currently adopted EC regulations (2010/63/EU). Finally, the studies are in compliance with the ARRIVE Guidelines for Reporting Animal Research' summarized at www.nc3rs.org.uk. Before experiments animals were fasted for 24 h.
PBS was used to prepare a solution of Ia for intravenous administration at a dose of 0.53 mg/kg. Experiments were done in triplicate. Mice and Wistar rats were sacrificed at 0.5, 1 and 2 hours after dosing and were previously anesthetized with sodium pentobarbital (6 mg/kg i.p.) for collection of blood by cardiac puncture and brain tissue was perfused by intraventricular injection of 10 mL of chilled saline solution to remove residual blood.
Serum was isolated from the blood samples by centrifugation at 657 g for 10 min, at 4° C. Serum proteins were precipitated with one volume of acetonitrile and were removed by centrifugation at 14000 g for 10 min. Brain was promptly removed and washed with PBS and blotted dry. Meninges were carefully removed. In the case of Wistar rats only cortex and hippocampus were collected while for mice the whole brain was used. The brain samples were homogenized with 2 volumes (V/w) of PBS/acetonitrile/Triton X-100 (50/50/0.5) using firstly a pestle and then a pipette and finally a sonicator. Compound Ic was added as internal standard to best mimic the recovery of compound Ia. The pellet was removed centrifuging at 14000 g for 10 min. Samples were purified by preparative reverse-phase HPLC Using a C18 column (Jupiter, Phenomenex) 250×21.2 mm, 5 μm. Chromatographic conditions were as follow: eluent (A) water/TFA (99.9:0.1, V/V), (B) acetonitrile/water/TFA (90:9.9:0.1, V/V). The linear gradient was started at 80% A, graded to 68% for 2 min and then was kept at 68% for 17 min finally grading to 0% A for 5 min. The flow rate was 10 mL/min and the column was at room temperature. […]
For identification of Ia and its metabolite in Wistar rat brain, samples were analyzed using a 4800plus MALDI-TOF/TOF (AB Sciex) mass spectrometer in the positive reflector MS and MS/MS modes with 3200 laser shots per spectrum and data was collected using the 4000 Series Explorer Software v.3.5.3 (Applied Biosystems). […]

Data set [2] can be described thus: in vivo pharmacokinetic study in mice after intravenous Ia. Particulars: for detection in brain samples: after intravenous Ia 0.53 mg/kg, HPLC-FLU and LC-MS.
Data set [3] has as its target T1, BACE-1 (human, recombinant) (Homo sapiens, UniProt P56817).
T1 construct: purchased Sigma-Aldrich
In words: BACE-1 activity assay (fluorogenic substrate, HPLC-FLU). Format: biochemical. The source says: The program started at 90% A for two min, graded to 70% A during ten min and finally to 0% A during two min.

The target in data set [4] is T2, BACE-2 (human, recombinant) (Homo sapiens, UniProt Q9Y5Z0).
T2 construct: purchased Enzo
T2 sequence (Q9Y5Z0 63-518): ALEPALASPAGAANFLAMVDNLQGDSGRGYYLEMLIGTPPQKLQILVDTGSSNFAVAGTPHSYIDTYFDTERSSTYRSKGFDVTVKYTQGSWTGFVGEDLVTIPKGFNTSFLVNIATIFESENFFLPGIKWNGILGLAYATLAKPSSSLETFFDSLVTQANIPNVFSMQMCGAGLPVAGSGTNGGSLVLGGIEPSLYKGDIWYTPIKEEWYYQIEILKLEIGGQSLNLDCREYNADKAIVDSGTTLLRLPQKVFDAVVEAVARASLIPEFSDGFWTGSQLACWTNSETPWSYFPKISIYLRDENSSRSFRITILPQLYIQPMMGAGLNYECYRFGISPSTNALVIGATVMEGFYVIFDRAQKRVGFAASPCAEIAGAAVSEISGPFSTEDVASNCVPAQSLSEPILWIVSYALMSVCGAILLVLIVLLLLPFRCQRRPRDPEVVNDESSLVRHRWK
Put plainly: BACE-2 activity assay (fluorogenic substrate, HPLC-FLU). Format: biochemical. Particulars: pH 4.5, 37° C.; mean value ± standard deviation, n = 3; read-out: Ki^app BACE-2.

The conditions of data set [5]: mouse, in vivo, iv.
Setting [6] is: pro-BACE-1, pH 4.5, 37° C., mean value ± standard deviation, n = 3, read-out: Ki BACE-1.

Where two headings read alike, the source gives them in different places. Starred links: 1 amine or outer side, 2 acyl side, 3 side chain; linkers in the order of their positions; H or OH if unused. Non-standard residues stand in square brackets, D forms with d. Residues, ends and D or L forms follow the SMILES beside them. LeuΨ(S-CHOHCH2)Ala = CC(C)C[C@H](N[*:1])[C@@H](O)C[C@@H](C)C(=O)[*:2]

T1 sequence (P56817 46-501): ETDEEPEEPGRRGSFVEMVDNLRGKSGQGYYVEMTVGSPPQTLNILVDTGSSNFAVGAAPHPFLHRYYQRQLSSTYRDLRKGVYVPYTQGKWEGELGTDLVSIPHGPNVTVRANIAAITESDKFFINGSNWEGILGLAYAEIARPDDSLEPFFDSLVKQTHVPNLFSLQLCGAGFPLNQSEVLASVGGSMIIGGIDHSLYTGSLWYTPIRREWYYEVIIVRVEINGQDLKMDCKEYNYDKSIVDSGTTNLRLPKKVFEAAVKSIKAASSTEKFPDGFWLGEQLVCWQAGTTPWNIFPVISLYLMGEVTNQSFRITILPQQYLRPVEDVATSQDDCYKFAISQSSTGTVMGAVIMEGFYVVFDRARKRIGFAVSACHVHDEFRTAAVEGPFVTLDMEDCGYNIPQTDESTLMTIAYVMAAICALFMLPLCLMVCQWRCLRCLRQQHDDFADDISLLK

What is called half-life is the time needed for the level to fall by half in the phase considered. A higher half-life goes with slow loss. Turning to `CC(=O)N[C@@H](CCC(=O)O)C(=O)N[C@@H](CC(C)C)C(=O)N[C@@H](CC(=O)O)C(=O)N[C@@H](CC(C)C)[C@@H](O)C[C@@H](C)C(=O)N[C@H](C(=O)N[C@@H](Cc1ccccc1)C(=O)N[C@@H](Cc1ccc(O)cc1)C(=O)N[C@@H](C)C(=O)N[C@@H](CCC(=O)O)C(=O)N[C@@H](CC(=O)O)C(N)=O)C(C)C` [Ia] (Ac-ELD[LeuΨ(S-CHOHCH2)Ala]VFYAED-NH2), the half-life at 10 µM in “in vitro” is 3.4 h. The “detection in rat cortex” value in data set [1] is “not detected”. Moreover, the “detection in serum samples” value in data set [1] was “detected”; in data set [2] (half an hour after intravenous Ia 0.53 mg/kg, HPLC-FLU), “not detected”. Further, the “detection in brain samples” value in data set [2] is “could not be detected”. In addition, the Ki in data set [3] (setting [6]) came out at 2 ± 0.6 nM; in data set [4], 18.3 ± 0.5 nM.
In the data set “in vitro”, `CC(C)C[C@H](NC(=O)[C@@H](N)CCC(=O)O)C(=O)N[C@@H](CC(=O)O)C(=O)N[C@@H](CC(C)C)[C@@H](O)C[C@@H](C)C(=O)N[C@H](C(=O)N[C@@H](Cc1ccccc1)C(=O)N[C@@H](Cc1ccc(O)cc1)C(=O)N[C@@H](C)C(=O)N[C@@H](CCC(=O)O)C(=O)N[C@@H](CC(=O)O)C(N)=O)C(C)C` [Ic] (H-ELD[LeuΨ(S-CHOHCH2)Ala]VFYAED-NH2) showed a half-life at 10 µM of 2.3 ± 0.1 h. For the same compound, the values for the Ki in data set [3], in data set [3] (setting [6]) and in data set [4] were 2 ± 0.1 nM, 1.9 ± 0.2 nM and 14.2 ± 2.2 nM, respectively.
As for `CC(C)C[C@H](NC(=O)[C@@H](N)CCC(=O)O)C(=O)N[C@@H](CC(=O)O)C(=O)N[C@@H](CC(C)C)[C@@H](O)C[C@@H](C)C(=O)N[C@H](C(=O)N[C@@H](Cc1ccccc1)C(=O)N[C@@H](Cc1ccccc1)C(=O)N[C@@H](C)C(=O)N[C@@H](CCC(=O)O)C(=O)N[C@@H](CC(=O)O)C(N)=O)C(C)C` [Id] (H-ELD[LeuΨ(S-CHOHCH2)Ala]VFFAED-NH2), the Ki in data set [3] (setting [6]) stood at 2 ± 0.1 nM; in data set [4], 7.3 ± 0.9 nM.
With `CC(C)C[C@H](NC(=O)[C@@H](N)CCC(=O)O)C(=O)N[C@@H](CC(=O)O)C(=O)N[C@@H](CC(C)C)[C@@H](O)C[C@@H](C)C(=O)N[C@H](C(=O)N[C@@H](Cc1ccccc1)C(=O)N[C@@H](Cc1ccc(O)cc1)C(=O)N[C@@H](C)C(=O)N[C@@H](CCC(=O)O)C(=O)N[C@@H](CC(=O)O)C(=O)O)C(C)C` [Ig] (H-ELD[LeuΨ(S-CHOHCH2)Ala]VFYAED-OH), in data set [5], the “concentration in mice brain” value is reported as “approximately 20 nM”. Moreover, the half-life at 10 µM in “in vitro” was 6 ± 0.3 h. The “detection in rat cortex” value in data set [1] is reported as “detected”. The “detection in serum samples” value in data set [1] is given as “detected”. Further, the “detection in brain samples” value in data set [2] is “found within therapeutic concentrations”. Besides, the Ki in data set [3] (setting [6]) is 1.7 ± 0.2 nM; in data set [4] it was 12.7 ± 1.9 nM.
On to `CC(C)C[C@H](NC(=O)[C@@H](N)CCC(=O)O)C(=O)N[C@@H](CC(=O)O)C(=O)N[C@@H](CC(C)C)[C@@H](O)C[C@@H](C)C(=O)N[C@H](C(=O)N[C@@H](CCC(=O)O)C(=O)N[C@@H](Cc1ccccc1)C(=O)O)C(C)C` [OM00-3, reference compound] (H-ELD[LeuΨ(S-CHOHCH2)Ala]VEF-OH), for which the half-life at 10 µM in the data set “in vitro” is 5.8 ± 0.7 h. Also, the Ki in data set [4] came to 3 ± 0.3 nM.
